Data from patent US20090054333A1, “Peptide inhibitors of cyclin-dependent kinase activity and uses thereof” (priority 2006, published 2009).
No end group written: not given here.

B1: Spc: pRb2/p130 spacer fragment, amino acids 755-828, 73 amino acids (protein)
chain: GGITFFPVQVNVGGQAQAVTGSIQPLSAQALAGSLSSQQVTGTTLQVPGQVAIQQISPGGQQQKQGQSVTSSSN
modifications: left off: a dimerising Fc or GST
notes: pRb2/p130 spacer fragment, amino acids 755-828, 73 amino acids
B2: Spa: pRb2/p130 spacer fragment, amino acids 616-711, 96 amino acids (protein)
chain: VPTCEEVMPPQNLERADEICIAGSPLTPRRVTEVRADTGGLGRSITSPTTLYDRYSSPPASTTRRRLFVENDSPSDGGTPGRMPPQPLVNAVPVQN
modifications: left off: a dimerising Fc or GST
B3: Spa38: pRb2/p130 amino acids 641 to 702 (62 amino acids long), SEQ ID NO:1 (protein, listed as Homo sapiens)
chain: LTPRRVTEVRADTGGLGRSITSPTTLYDRYSSPPASTTRRRLFVENDSPSDGGTPGRMPPQP
B4: Spa23: Table 1 construct: pRb2/p130 spacer fragment, amino acids 641-711, 71 amino acids (protein)
chain: LTPRRVTEVRADTGGLGRSITSPTTLYDRYSSPPASTTRRRLFVENDSPSDGGTPGRMPPQPLVNAVPVQN
modifications: left off: a dimerising Fc or GST

Biological target: cdk2
Test: in vitro cdk2 kinase assay with GST-fusion proteins, histone H1 substrate
Type: biochemical
Set-up: key to Kinase assay (inhibitory effect on cdk2 activity): P=positive; N=negative
Conditions: for Kinase assay (inhibitory effect on cdk2 activity): 0.1 μg GST-fusion protein, cdk2 immunoprecipitated from NIH/3T3; for inhibitory effect on cdk2 activity / histone H1 phosphorylation in vitro: GST-fusion protein added to cdk2 immunoprecipitate from NIH/3T3
Experimental: Constructs preparation: A prokaryotic expression vector pGEX-2T (Stratagene Inc., La Jolla Calif.) and polymerase chain reaction (PCR) were used to generate chimeric Glutathione-S-Transferase constructs. The primers used by PCR to amplify the fragments that were subcloned in the pGEX-2T were derived from the 5′ and 3′ ends of different regions of the spacer domain of […]. The mammalian expression vector pEF6/V5-His TOPO (Invitrogen Corp, Carlsbad, Calif.) was used to generate the constructs pEF6/V5-His-spacer and pEF6/V5-His-310 that express the correspondent genes with a C-terminal V5 epitope. The spacer and the 310 fragments were PCR-amplified with the respective primers (Table 1) to generate 3′ends of the cDNAs without stop codons and were subsequently subcloned into pEF6/V5-His TOPO (Invitrogen Corp, Carlsbad, Calif.) according to the manufacturer's instructions to obtain cDNAs coding for C-terminal fusion proteins. All generated constructs were confirmed by automated sequencing. Information regarding the primers is available upon request.
GST Fusion protein preparation: XL1-Blue bacteria carrying the pGEX-2T vectors were grown to mid log phase and then induced to express protein by adding 0.25 mM of isopropyl-1-thio-β-D-galactopyranoside (IPTG, Roche Applied Science, Indianapolis, Ind.). The cultures were shaken for 4 h; bacteria were then pelleted and resuspended in NENT buffer (20 mM Tris pH 8, 100 mM NaCl, 1 mM EDTA, 0.5% NP-40). Cell suspensions were sonicated, pelleted and the supernatant collected. The remaining bacteria were then resuspended in NENT buffer plus 2% of N-Lauryl-Sarcosine, pelleted and the supernatants were collected again. The combined supernatants were incubated with Glutathione agarose (Amersham Biosciences, Piscataway, N.J.) overnight at 4° C. The agarose was then pelleted and washed three times in NENT buffer.
Kinase assays: Cell lysates from NIH/3T3 were prepared by resuspending pelleted cells in 500 μl of lysis buffer (50 mM Tris, 5 mM EDTA, 250 mM NaCl, 50 mM NaF, 0.1% Triton, 0.1 mM Na3VO4, plus protease inhibitors). An equal amount of protein for each fraction (100 μg) was immunoprecipitated with a polyclonal anti-cdk2 antibody (De Luca et al., 1997, J Biol Chem, 272, 20971-4). The complexes were pulled down with protein A-Sepharose and washed three times with lysis buffer and twice with lysis buffer containing 400 mM NaCl. The complexes were equilibrated in kinase assay buffer (20 mM HEPES pH 7.4, 10 mM MgAc, […], 1 mM DTT). In order to detect the in vitro inhibition of cdk2 activity, each sample was incubated with an equal amount (0.1 μg) of each pGEX-2T fusion protein, in a final volume of 20 μl of kinase buffer, using 5 μCi/sample of γ-ATP (Amersham Biosciences, Piscataway, N.J.) and 2 μg of Histone H1 for 30 minutes at 30° C. Kinase assays were repeated at least three times, giving an inter assay standard deviation within 10% after normalization for protein amount. In order to evaluate the in vivo inhibition of cdk2 activity, cdk2 was immunoprecipitated, as described above, from NIH/3T3 cells transiently transfected with 5 μg of pEF6/V5-spacer, pEF6/V5-Spa310 or the vector alone as a control. The immunocomplexes were split in two tubes. A half of each sample was assayed for cdk2 activity in a final volume of 20 μl of kinase buffer with 5 μCi/sample of γ-ATP and 2 μg of Histone H1 for 30 min. at 30° C.; the second one was tested in western blot analysis to confirm that all the samples contained the amount of cdk2 immunoprecipitated. Briefly the samples were separated into 12% SDS polyacrylamide gels (SDS-PAGE), and then transferred into a nitrocellulose membrane (Schleicher & Schuell, Germany). The membrane was blocked with 5% non-fat dry milk in 1×TBST and incubated with the polyclonal anti-cdk2 antibody described above. […]

| Molecule | Kinase assay (inhibitory effect on cdk2 activity) | inhibitory effect on cdk2 activity / histone H1 phosphorylation in vitro |
| --- | --- | --- |
| Spa3: pRb2/p130 spacer fragment, amino acids 663-711, 49 amino acids (PTTLYDRYSSPPASTTRRRLFVENDSPSDGGTPGRMPPQPLVNAVPVQN; also: fused to dimerising Fc or GST) | N | little or no inhibitory effect |
| Spa311: pRb2/p130 amino acids 641 to 682 (42 amino acids long), SEQ ID NO:2 (LTPRRVTEVRADTGGLGRSITSPTTLYDRYSSPPASTTRRRL; listed as Homo sapiens) | P | – |
| Spa12: pRb2/p130 spacer fragment, amino acids 616-666, 51 amino acids (VPTCEEVMPPQNLERADEICIAGSPLTPRRVTEVRADTGGLGRSITSPTTL; cysteine pairing not given here; also: fused to dimerising Fc or GST) | N | – |
| Spa1: pRb2/p130 spacer fragment, amino acids 616-642, 27 amino acids (VPTCEEVMPPQNLERADEICIAGSPLT; cysteine pairing not given here; also: fused to dimerising Fc or GST) | N | little or no inhibitory effect |
| Spb: pRb2/p130 spacer fragment, amino acids 712-754, 43 amino acids (VSGETVSVTPVPGQTLVTMATATVTANNGQTVTIPVQGIANEN; also: fused to dimerising Fc or GST) | N | – |
| Spa72: Table 1 construct: pRb2/p130 spacer fragment, amino acids 652-711, 60 amino acids (DTGGLGRSITSPTTLYDRYSSPPASTTRRRLFVENDSPSDGGTPGRMPPQPLVNAVPVQN; also: fused to dimerising Fc or GST) | N | – |
| Spa2: pRb2/p130 spacer fragment, amino acids 641-666, 26 amino acids (LTPRRVTEVRADTGGLGRSITSPTTL; UniProt Q08999 641-666, looked up, fragment) | N | little or no inhibitory effect |
| Spa312: pRb2/p130 spacer fragment, amino acids 641-673, 33 amino acids (LTPRRVTEVRADTGGLGRSITSPTTLYDRYSSP; also: fused to dimerising Fc or GST) | N | – |
| B1 | N | – |
| B2 | P | inhibitory effect on histone H1 phosphorylation |
| B3 | P | – |
| B4 | P | able to inhibit cdk2 activity |
